Marks after values point to notes of the source that are not given here.
Tests used:
Assay type in all cases: cell-based
MCF-7 cells = assay: cells; details: Homo sapiens, MCF7, read-out: mean IC50 MCF-7 ± SD
Caco-2 cells = assay: cells; details: Homo sapiens, Caco-2, read-out: mean IC50 Caco-2 ± SD
Vero cells = assay: cells; details: Chlorocebus sabaeus, read-out: mean IC50 Vero cells
HepG-2 cells = assay: cells; details: Homo sapiens, HepG2, read-out: mean IC50 HepG-2 ± SD
β-actin = system: β-actin
eIF4E = eIF4E (Homo sapiens, UniProt P06730)
p-eIF4E = p-eIF4E (Homo sapiens, UniProt P06730)
Chain of p-eIF4E (P06730 whole entry): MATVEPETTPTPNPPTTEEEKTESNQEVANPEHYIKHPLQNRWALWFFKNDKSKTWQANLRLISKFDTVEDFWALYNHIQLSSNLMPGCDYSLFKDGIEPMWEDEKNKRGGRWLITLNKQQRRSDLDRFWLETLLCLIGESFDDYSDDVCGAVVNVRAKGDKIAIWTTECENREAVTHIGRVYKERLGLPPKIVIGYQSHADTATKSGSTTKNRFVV

Chain of eIF4E (P06730 whole entry): as above

Row | SMILES | IC50 (MCF-7 cells) [µM] | IC50 (Caco-2 cells) [µM] | IC50 (Vero cells) [µM] | IC50 (HepG-2 cells) [µM] | mean protein, β-actin (β-actin) [ng/mL] | protein ratio normalized to reference protein, β-actin (β-actin) | change in fold, eIF4E (eIF4E) | decrease in eIF4E protein (eIF4E) [%] | mean protein, eIF4E (eIF4E) [ng/mL] | protein ratio normalized to reference protein, eIF4E (eIF4E) | change in fold, p-eIF4E (p-eIF4E) | inhibition (decrease) of p-eIF4E expression (p-eIF4E) [%] | mean protein, p-eIF4E (p-eIF4E) [ng/mL] | protein ratio normalized to reference protein, p-eIF4E (p-eIF4E)
1 | CO[C@H]1C[C@@H]2CC[C@@H](C)[C@@](O)(O2)C(=O)C(=O)N2CCCC[C@H]2C(=O)O[C@H]([C@H](C)C[C@@H]2CC[C@@H](O)[C@H](OC)C2)CC(=O)[C@H](C)/C=C(\C)[C@@H](O)[C@@H](OC)C(=O)[C@H](C)C[C@H](C)/C=C/C=C/C=C/1C [Rapamycin] | 5.62 ± 0.24 | 27.7 ± 1.63 | > 100 | 47.6 ± 3.83 |  |  |  |  |  |  |  |  |  | 
2 | NC(=O)c1ncn([C@@H]2O[C@H](CO)[C@@H](O)[C@H]2O)n1 [Ribavirin] | 10.2 ± 0.15 | 9.78 ± 0.94 | > 100 | 63.9 ± 3.43 | 3.118 | 72.2 | 0.68 | 32.1 | 2.520 | 42.6* | 0.47 | 53 | 2.190 | 35.5*
